Data on one molecule can be found in US8710246B2, “Substituted thiophene pentamers” (Biochromix Newco AB, priority 2008, dated 2014).

The target in data set [1] is T1, Aβ peptide 1-42 (Homo sapiens, UniProt P05067).
T1 construct: Aβ peptide 1-42 was dissolved in hexafluoroisopropanol
Put plainly: In vitro fibrillation of Aβ peptide 1-42 followed by TEM. Format: biochemical. Conditions: for fibrillation morphology by TEM: 100 μM compound, 20 μM Aβ 1-42, 37° C. The method, then: Aβ peptide 1-42 was dissolved in hexafluoroisopropanol to a concentration of 1 mg/mL and further diluted to 20 μM in Tris-HCl 5 mM, 75 mM NaCl. The inventive compounds F and G were added in concentrations from 10 to 100 μM and the samples, including references without the inventive compounds, were incubated at 37° C. to initiate fibrillation. After Oh, 20 h and 66 h aliquots were withdrawn, deposited on formvar-carbon coated TEM grids and negatively stained using uranylacetate. A Phillips CM200 run at 200 kV was used to study the progress of fibrillation in the different samples. […] (at Oh). […] These aggregates were covering most of the TEM grid and no smaller fibril or oligomer like structures could be seen. After 66 h of incubation no major change in morphology compared to the 20 h samples could be seen, sheets with separate visible fibrils were found at high density on the grid, of a typical morphology illustrated in FIG. 3.

In data set [2] the test system is hAPPSL transgenic mice. Put plainly: 14 days treatment, general observations, tolerance to compound (toxicity). In kind it is in vivo. To be noted: for animals that died premature: ip 14 days. The protocol:
Vehicle: Phosphate Buffered Saline (PBS; 6.7 mM PO4, 155 mM NaCl, pH=7.3-7.5) (BioWhittaker PBS from Lonza).
T:I: p-FTAA, Mw=617 g/mol, diluted in vehicle from stock solution in deionized water (10 mg/ml).
Tg hAPPSL: Transgenic hAPPSL mice over-expressing hAPP(751) under the control of the murine Thy-1 promoter with a C57BL/6xDBA background.
(§1) Starting at 4 months of age, female hAPPSL mice were treated with vehicle only or p-FTAA in 3 dosages for 14 days. 40 hAPP Tg mice plus 4 reserves allocated to 4 different treatment groups were treated with either vehicle only (control) or with p-FTAA in dosages of 0.1 mg/kg/day, 1 mg/kg/day, or 10 mg/kg/day. Vehicle and T.I.s were administered twice daily intra peritoneal (ip) for 14 days.
In total 44 animals allocated to 4 treatment groups were included in the study. 4 animals died premature due to unknown reason: 1 animal each of the 1 mg/kg and 10 mg/kg T.I. groups and 2 animals from the control group.

Data set [3] is described as follows: 14 days treatment, biodistribution by HPLC-MS/MS. In kind it is in vivo, mice. The protocol: as §1
The biodistribution of p-FTAA in the mice was assessed by determining the parent compound in the right brain hemisphere (without cerebellum), liver, kidney, and plasma of the treated animals. p-FTAA was determined in all the matrices by different bioanalytical methods involving HPLC-MS/MS. Each method was characterized in terms of specificity, linearity, accuracy and precision in order to give reliable results.
Tissue Sampling: After the last treatment, animals were sacrificed. Each treatment group was divided in 3 sampling points resulting in 3-4 animals per sampling point per group (time points below refer to the time point of CSF sampling):
1) Immediately before last dosing on day 14 (predose)
2) 0.5 hours after last dosing on day 14
3) 3 hours after last dosing on day 14
From each animal, CSF, blood, brains, liver, and kidney were collected. Therefore, mice were sedated by standard inhalation anesthesia (Isofluran, Baxter)

Data set [4] concerns Aβ38, Aβ40 or Aβ42. The experiment in a line: 14 days treatment, DEA extraction of soluble amyloid beta from brain homogenates. To be noted: data not shown. In kind it is in vivo. An excerpt:
We also noted, data not shown, that p-FTAA treatment for 14 days, in 4 months old female […] transgenic mice, led to decreased Aβ38, Aβ40 or Aβ42 levels in the DEA Extraction of [soluble] Amyloid beta from brain homogenates.

In data set [5] the test system is hAPPSL transgenic mice. Put plainly: 30 days treatment, Morris Water Maze (MWM) test. Conditions: 10 mg/kg, ip 30 days, treatment days 24 to 27. Format: in vivo. The method, then:
Starting at 8 months of age, female hAPPSL mice were treated with vehicle only or p-FTAA in 3 dosages for 30 days. The Test Item (T.I.) p-FTAA was administered in 3 dosages in Vehicle. 48 hAPP Tg mice plus 4 reserves allocated to 4 different treatment groups were treated with either vehicle only (control) or with p-FTAA in dosages of 0.1 mg/kg/day, 1 mg/kg/day, or 10 mg/kg/day. As an additional control, 12 nTg littermates of the hAPPSL mice (plus 1 reserve) were treated with vehicle only. Vehicle and T.I.s were administered twice daily intra peritoneal (i.p.) for 30 days.
The MWM was performed during 4 days at the end of treatment period (treatment days 24 to 27). […]
The escape latency (the time needed to find the hidden platform and therefore to escape from the water), the swimming path (the length to reach the target), the swimming speed and in the probe trial crossings over the former platform position and the abidance in the target quadrant were evaluated. […]
Descriptive statistical analysis was performed on all evaluated parameters. […] Group differences were calculated by a parametric ANOVA followed by a Bonferroni post test or by a non-parametric Kruskal Wallis ANOVA followed by a Dunn's post test if Gaussian distribution was missing. Learning curves were evaluated by a Two-way ANOVA followed by a Bonferroni post test. […]

“Also recorded” adds a separate entry of the source.

T1 sequence (P05067 672-713 limits assumed): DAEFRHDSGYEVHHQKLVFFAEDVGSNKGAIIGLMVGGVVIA

Consider `O=C(O)Cc1cc(-c2ccc(C(=O)O)s2)sc1-c1ccc(-c2sc(-c3ccc(C(=O)O)s3)cc2CC(=O)O)s1` [Compound F], for which the “fibrillation morphology by TEM” value in data set [1] (20 h) is given as “no dense aggregates resembling those in the reference sample”. Besides, in data set [1] (66 h), the “fibrillation morphology by TEM” value is reported as “no separate fibrils could be found; also recorded: dense aggregates where no fibrils can be seen”. In addition, the “effect on the fibrillation of Aβ peptide 1-42” value in data set [1] (overall conclusion, 20 h and 66 h) is recorded as “major effect”. Further, the “animals that died premature” value in data set [2] (1 mg/kg group) was 1 animal. Further, the “animals that died premature” value in data set [2] (10 mg/kg group) is given as 1 animal. Besides, the “attribution of premature deaths to the compound” value in data set [2] (0.1, 1, 10 mg/kg/day ip twice daily for 14 days, 4 months old female hAPPSL mice) was “cannot be attributed to p-FTAA”. Besides, the systemic exposure result in data set [3] (0.1, 1, 10 mg/kg/day ip for 14 days, plasma) was “exposed systemically to p-FTAA at all dose levels”. Besides, the “crossing of the blood-brain barrier (brain levels)” value in data set [3] (after ip administration, 14 days) is recorded as “crossed the blood-brain barrier”. Also, in data set [3] (ip, 14 days), the “elimination route suggested by tissue levels” value is “urinary excretion is the main elimination route”; the “exposure in the liver and in the kidney” value is “Significant exposure”; the “levels in kidney compared to liver” value was “higher in the kidney compared to the liver”. The “Aβ38, Aβ40 or Aβ42 levels in DEA extraction of soluble amyloid beta from brain homogenates” value in data set [4] (4 months old female hAPPSL mice) is reported as “decreased”. Moreover, the “dose group with the strongest effect on DEA soluble Aβ” value in data set [4] was “strongest for 10 mg/kg/day group”. Also, in data set [5], the “MWM performance in terms of the swimming path” value is “better performance than any other Tg group”.
